From article PMC7464485, “Antimicrobial Activities of Highly Bioavailable Organic Salts and Ionic Liquids from Fluoroquinolones” (Pharmaceutics, 2020)
≈ marks a conversion by molar mass, not a printed value. Read-outs that look alike come from different tables or passages of the source.

What was measured:
[1] = system: Staphylococcus aureus (ATCC 25923); assay: Antimicrobial activity (growth, OD 600 nm); type: cell-based
[2] = system: Bacillus subtilis (ATCC 6633); assay: Antimicrobial activity (growth, OD 600 nm); type: cell-based
[3] = system: Klebsiella pneumoniae (ATCC 11296); assay: Antimicrobial activity (growth, OD 600 nm); type: cell-based
[4] = cited from earlier work
[5] = Critical micelle concentration via ionic conductivity; type: physicochemical; conditions: for CMC: in water at 25 °C
3T3 mouse fibroblasts = assay: Cytotoxicity on 3T3 cells (MTT); type: cell-based
[6] = in water at 25 °C, cited from earlier work
[7] = Staphylococcus aureus, ATCC25923, 0.001–10 µM, read-out: IC50 S. aureus
[8] = Bacillus subtilis, ATCC6633, 0.001–10 µM, read-out: IC50 B. subtilis
[9] = Klebsiella pneumoniae, ATCC11296, 0.001–10 µM, read-out: IC50 K. pneumoniae
[10] = 0.001–10 µM, read-out: IC50 S. aureus
[11] = relative decrease of inhibitory concentration vs norfloxacin
[12] = 0.001–10 µM, read-out: IC50 B. subtilis
[13] = 0.001–10 µM, read-out: IC50 K. pneumoniae
[14] = relative decrease of inhibitory concentration vs ciprofloxacin

**Q.** Which results are given for `CCn1cc(C(=O)O)c(=O)c2cc(F)c(N3CCNCC3)cc21` [Norfloxacin, norfloxacin, reference compound]?
**A.** IC50 [1, 7]: 123 nM; IC50 ([2]; 0.001–10 µM, listed as Nor, read-out: IC50 B. subtilis): 117 nM; IC50 [2, 8]: 97.7 nM; IC50 [3, 9]: 255 nM; Solubility in water ([4]; 25 °C, neutral form): 370 µg/mL (≈ 1160 µM); Solubility in water ([4]; 25 °C, value outside parentheses): 540 ± 20 µg/mL (≈ 1690 µM); Solubility in water ([4]; 37 °C, value in parentheses): 850 ± 40 µg/mL (≈ 2660 µM); Solubility in water ([4]; 37 °C, value outside parentheses): 840 ± 20 µg/mL (≈ 2630 µM)

**Q.** For `CCn1cc(C(=O)[O-])c(=O)c2cc(F)c(N3CCNCC3)cc21.C[N+](C)(C)CCO` [[Ch][Nor]], which IC50 [1, 10] is on record?
**A.** 127 nM

**Q.** And the “RDIC50 S. aureus” value [1, 11]?
**A.** 1.0

**Q.** What about the IC50 [2, 12] of the same compound?
**A.** 95.5 nM

**Q.** And the “RDIC50 B. subtilis” value [2, 11]?
**A.** 1.2

**Q.** And the IC50 [3, 13]?
**A.** 199 nM

**Q.** And the “RDIC50 K. pneumoniae” value [3, 11]?
**A.** 1.3

**Q.** With `COCCn1cc[n+](C)c1` [[C3Omim]Cl, reference compound] as the compound, how does the IC50 [1, 7] read?
**A.** > 10000 nM

**Q.** And the IC50 [2, 8]?
**A.** > 10000 nM

**Q.** What about the IC50 [3, 9] of the same compound?
**A.** > 10000 nM

**Q.** Which IC50 [1, 10] does the source give for `CCn1cc(C(=O)[O-])c(=O)c2cc(F)c(N3CCNCC3)cc21.CCn1cc[n+](C)c1` [[EMIM][Nor]] here?
**A.** 211 nM

**Q.** What about the “RDIC50 S. aureus” value [1, 11] of the same compound?
**A.** 0.6

**Q.** And the IC50 [2, 12]?
**A.** 24.5 nM

**Q.** And the “RDIC50 B. subtilis” value [2, 11]?
**A.** 4.8

**Q.** And the IC50 [3, 13]?
**A.** 208 nM

**Q.** And the “RDIC50 K. pneumoniae” value [3, 11]?
**A.** 1.2

**Q.** What does the source list for `CCn1cc(C(=O)[O-])c(=O)c2cc(F)c(N3CCNCC3)cc21.COCC[n+]1ccn(C)c1` [[C3OMIM][Nor]]?
**A.** IC50 [1, 10]: 107 nM; RDIC50 S. aureus [1, 11]: 1.1; IC50 [2, 12]: 68.1 nM; RDIC50 B. subtilis [2, 11]: 1.7; IC50 [3, 13]: 224 nM; RDIC50 K. pneumoniae [3, 11]: 1.1

**Q.** Which IC50 [1, 10] does the source give for `CCCCCCCCCCCCCCCC[n+]1ccccc1.CCn1cc(C(=O)[O-])c(=O)c2cc(F)c(N3CCNCC3)cc21` [[C16Py][Nor]] here?
**A.** 10.8 nM

**Q.** What about the “RDIC50 S. aureus” value [1, 11] of the same compound?
**A.** 11.4

**Q.** What about the IC50 [2, 12] of the same compound?
**A.** 87.3 nM

**Q.** What about the “RDIC50 B. subtilis” value [2, 11] of the same compound?
**A.** 1.3

**Q.** And the “decrease of CMC in comparison with [C16Py]Cl” value [5]?
**A.** 95%

**Q.** And the CMC [5]?
**A.** 0.0539 mmol/L

**Q.** And the “increase in activity against K. pneumoniae vs norfloxacin” value [3]?
**A.** 30%

**Q.** What about the IC50 [3, 13] of the same compound?
**A.** 203 nM

**Q.** What about the “RDIC50 K. pneumoniae” value [3, 11] of the same compound?
**A.** 1.3

**Q.** And the IC50 (3T3 mouse fibroblasts)?
**A.** 5170 nM

**Q.** What about the IC50 (3T3 mouse fibroblasts; 0.03–10 µM, 24 h) of the same compound?
**A.** 5160 nM

**Q.** Which “activity against S. aureus” value [1] does the source give for `CCCCCCCCCCCCCCCC[n+]1ccccc1.O=C([O-])c1cn(C2CC2)c2cc(N3CCNCC3)c(F)cc2c1=O` [[C16Py][Cip]] here?
**A.** almost no activity

**Q.** And the IC50 [1, 10]?
**A.** 1430 nM

**Q.** And the “RDIC50 S. aureus” value [1, 14]?
**A.** 0.0

**Q.** What about the “decrease of activity against B. subtilis in comparison with ciprofloxacin” value [2] of the same compound?
**A.** 40%

**Q.** And the IC50 [2, 12]?
**A.** 6.07 nM

**Q.** What about the “RDIC50 B. subtilis” value [2, 14] of the same compound?
**A.** 0.6

**Q.** And the CMC [5]?
**A.** 0.0816 mmol/L

**Q.** What about the IC50 [3, 13] of the same compound?
**A.** 9.88 nM

**Q.** And the “RDIC50 K. pneumoniae” value [3, 14]?
**A.** 19.9

**Q.** And the IC50 (3T3 mouse fibroblasts)?
**A.** 4720 nM

**Q.** And the IC50 (3T3 mouse fibroblasts; 0.03–10 µM, 24 h)?
**A.** 4720 nM

**Q.** Which results are given for `C[n+]1ccn(CCO)c1` [[C2OHmim]Cl, reference compound]?
**A.** IC50 [1, 7]: > 10000 nM; IC50 [2, 8]: > 10000 nM; IC50 [3, 9]: > 10000 nM

**Q.** Which IC50 [1, 10] does the source give for `Cc1n(CCO)cc[n+]1C.O=C([O-])c1cn(C2CC2)c2cc(N3CCNCC3)c(F)cc2c1=O` [[C2OHDMIM][Cip]] here?
**A.** 21.2 nM

**Q.** What about the “RDIC50 S. aureus” value [1, 14] of the same compound?
**A.** 1.4

**Q.** What about the IC50 [2, 12] of the same compound?
**A.** 12.3 nM

**Q.** And the “RDIC50 B. subtilis” value [2, 14]?
**A.** 0.3

**Q.** What about the IC50 [3, 13] of the same compound?
**A.** 51 nM

**Q.** What about the “RDIC50 K. pneumoniae” value [3, 14] of the same compound?
**A.** 3.9

**Q.** What does the source list for `Cc1n(CCO)cc[n+]1C` [[C2OHDMIM]Cl, reference compound]?
**A.** IC50 [1, 7]: > 10000 nM; IC50 [2, 8]: > 10000 nM; IC50 [3, 9]: > 10000 nM

**Q.** For `O=C(O)c1cn(C2CC2)c2cc(N3CCNCC3)c(F)cc2c1=O` [Ciprofloxacin, ciprofloxacin, reference compound], which IC50 [1, 7] is on record?
**A.** 29.2 nM

**Q.** And the IC50 [2, 8]?
**A.** 3.84 nM

**Q.** And the IC50 [3, 9]?
**A.** 196 nM

**Q.** What does the source list for `C[N+](C)(C)CCO.O=C([O-])c1cn(C2CC2)c2cc(N3CCNCC3)c(F)cc2c1=O` [[Ch][Cip]]?
**A.** IC50 [1, 10]: 181 nM; RDIC50 S. aureus [1, 14]: 0.2; IC50 [2, 12]: 20.6 nM; RDIC50 B. subtilis [2, 14]: 0.2; IC50 [3, 13]: 51.1 nM

**Q.** Which results are given for `C[n+]1ccn(CCO)c1.O=C([O-])c1cn(C2CC2)c2cc(N3CCNCC3)c(F)cc2c1=O` [[C2OHMIM][Cip]]?
**A.** IC50 [2, 12]: 15.8 nM; RDIC50 B. subtilis [2, 14]: 0.2; IC50 [3, 13]: 36.4 nM; RDIC50 K. pneumoniae [3, 14]: 5.4

**Q.** What does the source list for `CCCCCCCCCCCCCCCC[n+]1ccccc1.[Cl-]` [[C16Py]Cl]?
**A.** CMC [5]: 1.063 mmol/L; CMC ([6]; ref 49): 1.067 mmol/L; CMC ([6]; ref 50): 0.96 mmol/L

**Q.** For `C[N+](C)(C)CCO.[Cl-]` [[Ch]Cl, reference compound], which IC50 ([1]; Staphylococcus aureus, ATCC25923, read-out: IC50 S. aureus) is on record?
**A.** > 10000 nM

**Q.** What about the IC50 ([2]; Bacillus subtilis, ATCC6633, read-out: IC50 B. subtilis) of the same compound?
**A.** > 10000 nM

**Q.** And the IC50 ([3]; Klebsiella pneumoniae, ATCC11296, read-out: IC50 K. pneumoniae, 0.001–10 µM)?
**A.** > 10000 nM

**Q.** Which results are given for `COCC[n+]1ccn(C)c1.O=C([O-])c1cn(C2CC2)c2cc(N3CCNCC3)c(F)cc2c1=O` [[C3OMIM][Cip]]?
**A.** IC50 [1, 10]: 82 nM; RDIC50 S. aureus [1, 14]: 0.4; IC50 [2, 12]: 21.7 nM; RDIC50 B. subtilis [2, 14]: 0.2; IC50 [3, 13]: 47.6 nM; RDIC50 K. pneumoniae [3, 14]: 4.1

**Q.** Which IC50 [1, 10] does the source give for `CCn1cc[n+](C)c1.O=C([O-])c1cn(C2CC2)c2cc(N3CCNCC3)c(F)cc2c1=O` [[EMIM][Cip]] here?
**A.** 24.2 nM

**Q.** And the “RDIC50 S. aureus” value [1, 14]?
**A.** 1.2

**Q.** And the IC50 [2, 12]?
**A.** 16.2 nM

**Q.** What about the “RDIC50 B. subtilis” value [2, 14] of the same compound?
**A.** 0.2

**Q.** What about the IC50 [3, 13] of the same compound?
**A.** 64.8 nM

**Q.** What about the “RDIC50 K. pneumoniae” value [3, 14] of the same compound?
**A.** 3.0

**Q.** What does the source list for `CCn1cc(C(=O)[O-])c(=O)c2cc(F)c(N3CCNCC3)cc21.Cc1n(CCO)cc[n+]1C` [[C2OHDMIM][Nor]]?
**A.** increased activity against S. aureus vs norfloxacin [1]: 60%; IC50 [1, 10]: 79.5 nM; RDIC50 S. aureus [1, 11]: 1.6; lost activity against B. subtilis vs norfloxacin [2]: 20%; IC50 [2, 12]: 149 nM; RDIC50 B. subtilis [2, 11]: 0.8; increase in activity against K. pneumoniae vs norfloxacin [3]: 40%; IC50 [3, 13]: 178 nM; RDIC50 K. pneumoniae [3, 11]: 1.4

**Q.** With `CCn1cc[n+](C)c1` [[EMIM]Br, reference compound] as the compound, how does the IC50 [1, 7] read?
**A.** > 10000 nM

**Q.** And the IC50 [2, 8]?
**A.** > 10000 nM

**Q.** And the IC50 [3, 9]?
**A.** > 10000 nM

**Q.** For `CCn1cc(C(=O)[O-])c(=O)c2cc(F)c(N3CCNCC3)cc21.C[n+]1ccn(CCO)c1` [[C2OHMIM][Nor]], which IC50 [1, 10] is on record?
**A.** 91.7 nM

**Q.** What about the “RDIC50 S. aureus” value [1, 11] of the same compound?
**A.** 1.3

**Q.** And the IC50 [2, 12]?
**A.** 88.6 nM

**Q.** And the “RDIC50 B. subtilis” value [2, 11]?
**A.** 1.3

**Q.** What about the IC50 [3, 13] of the same compound?
**A.** 201 nM

**Q.** And the “RDIC50 K. pneumoniae” value [3, 11]?
**A.** 1.3
